The target of this experiment is WD repeat-containing protein 5 (Homo sapiens, UniProt P61964). Kind of experiment: Binding affinity to WDR5 expressed in pLysS cells by optimized fluorescent polarization based competitive binding assay. The format is biochemical.

pIC50, pKi: −log10 of the molar value. Bounds are passed on as bounds.

As a reminder, the pIC50 is −log10 of the IC50, conventionally taken in molar units. A lower pIC50 goes with a large IC50. As a reminder, the pKi is the negative decadic logarithm of the Ki, by convention in mol/L. Read a high pKi as a low Ki.

With `C[C@H](N)C(=O)N[C@@H](CCCN=C(N)N)C(=O)N[C@@H](C)C(N)=O`, the pIC50 is < 3.52 and the pKi is < 4.30.

As for `CC(=O)N[C@@H](C)C(=O)N[C@@H](CCCNC(=N)N)C(=O)N[C@H](C(=O)N[C@@H](CCCCN)C(=O)N[C@@H](CCC(N)=O)C(=O)N[C@H](C(=O)N[C@@H](C)C(=O)N[C@@H](CCCNC(=N)N)C(=O)N[C@@H](CCCCN)C(=O)N[C@@H](CO)C(N)=O)[C@@H](C)O)[C@@H](C)O`, the negative logarithm of the Ki (pKi) is > 9.00.

On to `CC(=O)N[C@@H](C)C(=O)N[C@@H](CCCNC(=N)N)C(=O)N(C)[C@@H](C)C(N)=O`, for which the pIC50 is < 3.52 and the pKi is < 4.30.

The record behind these values is ChEMBL document CHEMBL1155441 (J Med Chem, 2010).
